The values below come from ChEMBL document CHEMBL1128944, “Potent cyclic urea HIV protease inhibitors with benzofused heterocycles as P2/P2 groups” (Bioorg Med Chem Lett, 1996).

Data set [1] deals with Human immunodeficiency virus type 1 protease (Human immunodeficiency virus 1) (UniProt Q72874). Kind of data set: Inhibitory activity against HIV-1 RF infected MT-2 cells. The format is functional, cell-based. The settings on record: MT2.
Data set [2] deals with Human immunodeficiency virus type 1 protease (Human immunodeficiency virus 1, UniProt Q72874). In words: Inhibitory activity was evaluated against HIV protease.
A short description of data set [3]: Plasma Clearance was evaluated in rats, iv. Type of data set: ADME, organism-based. The settings on record: rat.
Data set [4] is described as follows: Clearance value was evaluated in dog plasma. Type of data set: ADME, organism-based, Canis lupus familiaris.
Data set [5] can be described thus: Half life period was evaluated in dog. The format is ADME, organism-based, Canis lupus familiaris. The settings on record: in vivo.
Data set [6] is described as follows: Half life period was evaluated in rats. Type of data set: ADME, organism-based. The settings on record: rat, in vivo.
The nature of data set [7]: Maximum concentration was evaluated in dog plasma. Type of data set: ADME, organism-based, Canis lupus familiaris.
Data set [8] is described as follows: Bioavailability was evaluated in dog. Type of data set: ADME, organism-based, Canis lupus familiaris. To be noted: in vivo.

In data set [1], `O=C1N(Cc2ccc3[nH]c(O)nc3c2)[C@H](Cc2ccccc2)[C@H](O)[C@@H](O)[C@@H](Cc2ccccc2)N1Cc1ccc2[nH]c(O)nc2c1` came in with an IC90 above 65000 nM. Also, the Ki in data set [2] is below 0.01 nM.

On to `O=C1N(Cc2ccc(CO)cc2)[C@H](Cc2ccccc2)[C@H](O)[C@@H](O)[C@@H](Cc2ccccc2)N1Cc1ccc(CO)cc1` [DMP-323], for which the clearance in data set [3] was 118 mL/min/kg. In data set [1], the IC90 amounted to 100 nM.

Take `O=C1N(Cc2ccc3nn[nH]c3c2)[C@H](Cc2ccccc2)[C@H](O)[C@@H](O)[C@@H](Cc2ccccc2)N1Cc1ccc2nn[nH]c2c1`: the Ki in data set [2] was 0.09 nM.

The molecule `O=C1CNc2cc(CN3C(=O)N(Cc4ccc5c(c4)NCC(=O)N5)[C@H](Cc4ccccc4)[C@H](O)[C@@H](O)[C@H]3Cc3ccccc3)ccc2N1` returned an IC90 in data set [1] of 7700 nM. This molecule had a Ki in data set [2] of 6.1 nM.

Consider `O=C1N(Cc2ccc3c[nH]nc3c2)[C@H](Cc2ccccc2)[C@H](O)[C@@H](O)[C@@H](Cc2ccccc2)N1Cc1ccc2c[nH]nc2c1`, for which the 90% effect level in data set [1] (IC90) was put at 49 nM. Besides, the affinity in data set [2] corresponds to a Ki of 0.018 nM.

Turning to `O=C1N(Cc2ccc3[nH]ncc3c2)[C@H](Cc2ccccc2)[C@H](O)[C@@H](O)[C@@H](Cc2ccccc2)N1Cc1ccc2[nH]ncc2c1`, the clearance was 3.33 mL/min/kg in data set [3] and 18.3 mL/min/kg in data set [4]. Besides, the half-life in data set [5] was 2 h; in data set [6] it was 2.7 h. In data set [7], the concentration peaked (Cmax) at 600 ng/mL. Besides, the IC90 in data set [1] worked out at 8 nM. This molecule also had a Ki in data set [2] of 0.018 nM. Moreover, the bioavailability in data set [8] came to 13%.

Turning to `O=C1Cc2cc(CN3C(=O)N(Cc4ccc5c(c4)CC(=O)N5)[C@H](Cc4ccccc4)[C@H](O)[C@@H](O)[C@H]3Cc3ccccc3)ccc2N1`, it took 370 nM to reach the 90% level in data set [1] (IC90). The same molecule returned a Ki in data set [2] of 0.14 nM.

In data set [1], `O=C1Nc2ccc(CN3C(=O)N(Cc4ccc5c(c4)C(=O)C(=O)N5)[C@H](Cc4ccccc4)[C@H](O)[C@@H](O)[C@H]3Cc3ccccc3)cc2C1=O` registered an IC90 of 8500 nM. Further, the Ki in data set [2] is 0.81 nM.

In data set [1], `Nc1nc2ccc(CN3C(=O)N(Cc4ccc5nc(N)sc5c4)[C@H](Cc4ccccc4)[C@H](O)[C@@H](O)[C@H]3Cc3ccccc3)cc2s1` showed an IC90 of 270 nM. This molecule had a Ki in data set [2] of 5.7 nM.

`O=C1N(Cc2ccc3scnc3c2)[C@H](Cc2ccccc2)[C@H](O)[C@@H](O)[C@@H](Cc2ccccc2)N1Cc1ccc2scnc2c1`: the IC90 in data set [1] was 3200 nM. The molecule further showed a Ki in data set [2] of 28 nM.

In turn, `O=C1N(Cc2ccc3nc(O)oc3c2)[C@H](Cc2ccccc2)[C@H](O)[C@@H](O)[C@@H](Cc2ccccc2)N1Cc1ccc2nc(O)oc2c1` yielded an IC90 in data set [1] of 40 nM. This molecule showed a Ki in data set [2] of 0.18 nM.

`O=C1N(Cc2ccc3nc(O)cnc3c2)[C@H](Cc2ccccc2)[C@H](O)[C@@H](O)[C@@H](Cc2ccccc2)N1Cc1ccc2nc(O)cnc2c1` displayed an IC90 in data set [1] of 7800 nM. In addition, the Ki in data set [2] amounted to 490 nM.

Regarding `O=C1N(Cc2ccc3ncoc3c2)[C@H](Cc2ccccc2)[C@H](O)[C@@H](O)[C@@H](Cc2ccccc2)N1Cc1ccc2ncoc2c1`, it took 440 nM to reach the 90% level in data set [1] (IC90). In data set [2], this molecule registered an inhibition constant (Ki) of 3.4 nM.

On to `Nc1nc2cc(CN3C(=O)N(Cc4ccc5[nH]c(N)nc5c4)[C@H](Cc4ccccc4)[C@H](O)[C@@H](O)[C@H]3Cc3ccccc3)ccc2[nH]1`, for which, in data set [1], the IC90 came out at 8100 nM. Moreover, the affinity in data set [2], expressed as Ki, was 5.8 nM.

For `O=C1N(Cc2ccc3c(c2)NS(=O)(=O)N3)[C@H](Cc2ccccc2)[C@H](O)[C@@H](O)[C@@H](Cc2ccccc2)N1Cc1ccc2c(c1)NS(=O)(=O)N2`, the IC90 in data set [1] was 32000 nM. In data set [2], this molecule gave a Ki of 0.19 nM.

Molecule `O=C1N(Cc2ccc3nc(S)oc3c2)[C@H](Cc2ccccc2)[C@H](O)[C@@H](O)[C@@H](Cc2ccccc2)N1Cc1ccc2nc(S)oc2c1` registered an IC90 in data set [1] of 5100 nM. In addition, in data set [2], the affinity, expressed as Ki, was 4.8 nM.

With `O=C1N(Cc2ccc3nc(O)sc3c2)[C@H](Cc2ccccc2)[C@H](O)[C@@H](O)[C@@H](Cc2ccccc2)N1Cc1ccc2nc(O)sc2c1`, in data set [1], it took 109 nM to reach the 90% level (IC90). The same molecule displayed a Ki in data set [2] of 0.91 nM.

For `O=C1N(Cc2ccc3[nH]nnc3c2)[C@H](Cc2ccccc2)[C@H](O)[C@@H](O)[C@@H](Cc2ccccc2)N1Cc1ccc2[nH]nnc2c1`, in data set [1], the IC90 turned out to be 530 nM.

In data set [1], `O=C1N(Cc2ccc3[nH]cnc3c2)[C@H](Cc2ccccc2)[C@H](O)[C@@H](O)[C@@H](Cc2ccccc2)N1Cc1ccc2[nH]cnc2c1` displayed an IC90 of 19000 nM. The same molecule returned a Ki in data set [2] of 11 nM.

`Nc1nc2cc(CN3C(=O)N(Cc4ccc5sc(N)nc5c4)[C@H](Cc4ccccc4)[C@H](O)[C@@H](O)[C@H]3Cc3ccccc3)ccc2s1` had an IC90 in data set [1] of 950 nM. The same molecule yielded an inhibition constant Ki in data set [2] of 190 nM.

The molecule `Nc1nc2ccc(CN3C(=O)N(Cc4ccc5nc(N)oc5c4)[C@H](Cc4ccccc4)[C@H](O)[C@@H](O)[C@H]3Cc3ccccc3)cc2o1` had an IC90 in data set [1] of 84 nM. Also, in data set [2], affinity was put at a Ki of 0.2 nM.

Turning to `O=C1N(Cc2ccc3sc(O)nc3c2)[C@H](Cc2ccccc2)[C@H](O)[C@@H](O)[C@@H](Cc2ccccc2)N1Cc1ccc2sc(O)nc2c1`, affinity in data set [2] was put at a Ki of 130 nM.

`O=C1N(Cc2ccc3oc(O)nc3c2)[C@H](Cc2ccccc2)[C@H](O)[C@@H](O)[C@@H](Cc2ccccc2)N1Cc1ccc2oc(O)nc2c1` came in with an IC90 in data set [1] of 579 nM. For the same molecule, in data set [2], the affinity corresponds to a Ki of 3.9 nM.

In the case of `O=C1N(Cc2ccc3[nH]ccc3c2)[C@H](Cc2ccccc2)[C@H](O)[C@@H](O)[C@@H](Cc2ccccc2)N1Cc1ccc2[nH]ccc2c1`, it took 190 nM to reach the 90% level in data set [1] (IC90). Moreover, in data set [2], the Ki was 1.3 nM.
